Data from PMC7070908, “Structure-Guided Identification of Black Cohosh (Actaea racemosa) Triterpenoids with In Vitro Activity against Multiple Myeloma” (Molecules, 2020).
≈ marks a conversion by molar mass, not a printed value. Where “and” joins values, the source holds several entries; their conditions need not be identical. Equal entries are not always repeated.

How the values were obtained:
[1] = tested on: NCI-H929 myeloma cell line; test: Cytotoxicity, flow cytometry (AnnexinV/propidium iodide negativity), NCI-H929; type: cell-based, human; details: for activity on NCI-H929 (in words): up to 37.5 µM
Protocol: (§1) Induction of apoptosis was measured in myeloma cell lines NCI-H929, OPM-2, and U266 as well as in peripheral blood mononuclear cells (PBMCs) of healthy donors by flow cytometry using established protocols thereby staining the cells with AnnexinV-fluorescein isothiocyanate and propidium iodide. Bortezomib (Eubio, Vienna, Austria) was used as positive control. Cell lines were purchased from DSMZ (Braunschweig, Germany) and routinely fingerprinted and tested for mycoplasma negativity. All cells (cell lines and PBMC) were grown in RPMI-1640 medium (Life Technologies, Paisley, UK) supplemented with 10% fetal calf serum (FCS; PAA, Linz, Austria), L-glutamine 100 µg/mL, and penicillin-streptomycin 100 U/mL. PBMCs from healthy donors were used after obtaining written informed consent at the University Hospital Salzburg (ethics committee approval 415-E/1287/6-2011). Cells were subjected to Ficoll separation (Ficoll PaqueTM) and incubated in RPMI-1640 Media with supplements as above. In brief, 0.5 × 10^6 myeloma cells/mL or similar numbers of PMBCs were incubated for 24 h and 48 h with or without the tested compounds dissolved in dimethyl sulfoxide at different concentrations. At least three analyses in triplicates were performed for each cell line and a solvent control was always included. As a positive control, the proteasome inhibitor bortezomib (BTZ) was used at concentrations of 10 and 5 nM. The extent of non-apoptotic cells (AnnexinV/propidium iodide negativity) was calculated as percentage of viable cells in respect to the untreated control. Data are shown as mean percentage of viable cells and standard error of the mean (SEM) (error bars).

OPM-2 myeloma cell line = test: Cytotoxicity, flow cytometry (AnnexinV/propidium iodide negativity), OPM-2; type: cell-based, human; details: for activity on OPM-2 (in words): up to 37.5 µM
Protocol: as §1

U266 myeloma cell line = test: Cytotoxicity, flow cytometry (AnnexinV/propidium iodide negativity), U266; type: cell-based, human; details: for activity on U266 (in words): up to 37.5 µM
Protocol: as §1

[2] = tested on: peripheral blood mononuclear cells (PBMCs) of healthy donors; test: Cytotoxicity, flow cytometry (AnnexinV/propidium iodide negativity), PBMC of healthy donors; type: cell-based, human
Protocol: as §1

MCF7 breast cancer cells = tested on: MCF7 breast cancer cells; parameters: method as in PMID 14758092; details: incubation times of 96 h; cited from earlier work
MCF7 cells = tested on: MCF7 cells; parameters: method as in PMID 20564500; details: cited from earlier work; for IC50 MCF7: 48 h of incubation
[3] = tested on: doxorubicin-resistant-MCF7 (R-MCF7) cells; parameters: method as in PMID 20564500; details: cited from earlier work; for IC50 R-MCF7: doxorubicin-resistant MCF7, 48 h of incubation
[4] = 25 µM, 24 h, % of untreated control, mean ± SEM (Table 1)
[5] = 25 µM, 48 h, % of untreated control, mean ± SEM (Table 2)
[6] = 50 µM, 24 h, % of untreated control, mean ± SEM (Table 1)
[7] = 50 µM, 48 h, % of untreated control, mean ± SEM (Table 2)
[8] = 12.5 µM, 24 h, second round (Table 3)
[9] = 25 µM, 24 h, second round (Table 3)
[10] = 37.5 µM, 24 h, second round (Table 3)
[11] = 5 nM, 24 h, positive control (Table 3)
[12] = 10 nM, 24 h, positive control (Table 3)

Structure (SMILES) | IC50 growth inhibition of MCF7 breast cancer cells (MCF7 breast cancer cells) [mg/L] | MM Cells % Alive NCI-H929 [1, 8] [%] | MM Cells % Alive NCI-H929 [1, 9] [%] | MM Cells % Alive NCI-H929 [1, 10] [%] | MM Cells % Alive OPM-2 (OPM-2 myeloma cell line; [8]) [%] | MM Cells % Alive OPM-2 (OPM-2 myeloma cell line; [9]) [%] | MM Cells % Alive OPM-2 (OPM-2 myeloma cell line; [10]) [%] | MM Cells % Alive U266 (U266 myeloma cell line; [8]) [%] | MM Cells % Alive U266 (U266 myeloma cell line; [9]) [%] | MM Cells % Alive U266 (U266 myeloma cell line; [10]) [%] | PBMC % Alive [2, 8] [%] | PBMC % Alive [2, 9] [%] | PBMC % Alive [2, 10] [%] | activity on NCI-H929 (in words) ([1]; 24 h) | activity on OPM-2 (in words) (OPM-2 myeloma cell line; 24 h) | activity on U266 (in words) (U266 myeloma cell line; 24 h) | also measured
CC(=O)O[C@@H]1C[C@@]23C[C@@]24CC[C@H](O[C@@H]2OC[C@@H](O)[C@H](O)[C@H]2O)C(C)(C)[C@@H]4CC[C@H]3[C@]2(C)C[C@@H]3O[C@]4(C[C@@H](C)[C@@H]3[C@@]12C)O[C@H](O)[C@@]1(C)O[C@@H]41 [Compound 1, actein] | 14 |  |  |  |  |  |  |  |  |  |  |  |  |  |  |  | MM Cells % Alive NCI-H929 [1, 4]: 80.5 ± 5.9%; MM Cells % Alive NCI-H929 [1, 5]: 70.2 ± 4.3%; MM Cells % Alive NCI-H929 [1, 6]: 48.2 ± 10.9%; MM Cells % Alive NCI-H929 [1, 7]: 13.2 ± 2.4%; MM Cells % Alive OPM-2 (OPM-2 myeloma cell line; [4]): 93.2 ± 3.7%; MM Cells % Alive OPM-2 (OPM-2 myeloma cell line; [5]): 93.1 ± 2.4%; MM Cells % Alive OPM-2 (OPM-2 myeloma cell line; [6]): 81.1 ± 4.7%; MM Cells % Alive OPM-2 (OPM-2 myeloma cell line; [7]): 67.3 ± 6.7%; MM Cells % Alive U266 (U266 myeloma cell line; [4]): 90.2 ± 4.1%; MM Cells % Alive U266 (U266 myeloma cell line; [5]): 81.0 ± 5.9%; MM Cells % Alive U266 (U266 myeloma cell line; [6]): 75.1 ± 6.4%; MM Cells % Alive U266 (U266 myeloma cell line; [7]): 35.5 ± 6.7%; PBMC % Alive [2, 4]: 96.4 ± 0.1%; PBMC % Alive [2, 5]: 94.6 ± 0.2%; PBMC % Alive [2, 6]: 85.6 ± 1.2%; PBMC % Alive [2, 7]: 74.9 ± 1.2%
CC(=O)OC(C)(C)C1OC23OC1CC(C)C2C1(C)CCC24CC25CCC(OC2OCC(O)C(O)C2O)C(C)(C)C5CCC4C1(C)C3O [Compound 4, 25-O-acetylcimigenol-3-O-β-D-xylopyranoside] |  | 84.3 ± 8.6 | 59.5 ± 8.7 | 27.8 ± 6.6 | 94.8 ± 5.3 | 90.3 ± 3.7 | 56.0 ± 13.0 | 91.8 ± 4.2 | 87.8 ± 2.0 | 88.0 ± 1.2 | 96.7 ± 2.9 | 72.7 ± 5.4 | 28.7 ± 5.9 |  |  |  | IC50 NCI-H929 ([1]; incubation for 24 h): 20.3 mg/L (≈ 30.6 µM); IC50 OPM-2 (OPM-2 myeloma cell line; incubation for 24 h): 26.3 mg/L (≈ 39.7 µM); IC50 U266 (U266 myeloma cell line; incubation for 24 h): >37.5 mg/L; IC50 PBMC ([2]; incubation for 24 h): 20.7 mg/L (≈ 31.2 µM); IC50 MCF7 (MCF7 cells): 4.3 mg/L (≈ 6.49 µM); IC50 R-MCF7 [3]: 4.8 mg/L (≈ 7.24 µM)
CC(=O)O[C@@H]1C[C@@]23C[C@@]24CC[C@H](O[C@@H]2OC[C@@H](O)[C@H](O)[C@H]2O)C(C)(C)[C@@H]4CC=C3[C@]2(C)C[C@@H]3O[C@@]4(O)[C@H](OC(C)(C)[C@H]4O)[C@@H](C)[C@@H]3[C@@]12C [cimiracemoside A] | 41 |  |  |  |  |  |  |  |  |  |  |  |  |  |  |  | 
CC1CC2OC3(OC2C(C)(C)O)C1C1(C)CCC24CC25CCC(OC2OCC(O)C(O)C2O)C(C)(C)C5CCC4C1(C)C3O [Compound 6, cimigenol-3-O-β-D-xylopyranoside] |  | 98.5 ± 0.8 | 91.8 ± 3.4 | 88.5 ± 0.3 | 101.7 ± 0.9 | 99.5 ± 1.8 | 100.5 ± 2.4 | 94.8 ± 3.0 | 94.5 ± 3.5 | 93.5 ± 3.2 |  |  |  | no activity | no activity | no activity | activity against MCF7 (in words) (MCF7 cells): no activity; activity against R-MCF7 (in words) [3]: no activity
CC(C)C[C@H](NC(=O)[C@H](Cc1ccccc1)NC(=O)c1cnccn1)B(O)O [BTZ, bortezomib, reference compound] |  |  |  |  |  |  |  |  |  |  |  |  |  |  |  |  | MM Cells % Alive NCI-H929 [1, 11]: 3.0 ± 1.0%; MM Cells % Alive NCI-H929 [1, 12]: 6.3 ± 5.4%; MM Cells % Alive OPM-2 (OPM-2 myeloma cell line; [11]): 85.3 ± 7.6%; MM Cells % Alive OPM-2 (OPM-2 myeloma cell line; [12]): 66.0 ± 9.4%; MM Cells % Alive U266 (U266 myeloma cell line; [11]): 80.7 ± 14.1%; MM Cells % Alive U266 (U266 myeloma cell line; [12]): 25.0 ± 8.3%
CC(=O)OC(C)(C)C1OC23OC1CC(C)C2C1(C)CCC24CC25CCC(OC2OCC(O)C(O)C2O)C(C)(C)C5CCC4C1(C)C3O [Compound 3, 25-O-acetylcimigenol-3-O-α-L-arabinopyranoside] |  | 93.3 ± 1.8 | 59.5 ± 7.8 | 11.8 ± 4.3 | 99.5 ± 2.0 | 88.8 ± 1.8 | 70.8 ± 11.5 | 95.0 ± 2.4 | 77.8 ± 4.6 | 48.0 ± 7.4 | 101.7 ± 0.3 | 98.3 ± 2.0 | 58.7 ± 12.7 |  |  |  | MM Cells % Alive NCI-H929 [1, 4]: 52.9 ± 7.1%; MM Cells % Alive NCI-H929 [1, 5]: 18.9 ± 3.3%; MM Cells % Alive NCI-H929 [1, 6]: 10% and 10.3 ± 2.8%; IC50 ([1]; Homo sapiens, NCI-H929, 24 h, incubation for 24 h): 18.1 mg/L (≈ 27.3 µM); MM Cells % Alive OPM-2 (OPM-2 myeloma cell line; [4]): 63.8 ± 12%; MM Cells % Alive OPM-2 (OPM-2 myeloma cell line; [5]): 43.4 ± 9.3%; MM Cells % Alive OPM-2 (OPM-2 myeloma cell line; [6]): 20% and 19.7 ± 5.7%; IC50 (OPM-2 myeloma cell line; Homo sapiens, OPM-2, 24 h, incubation for 24 h): > 37.5 mg/L; MM Cells % Alive U266 (U266 myeloma cell line; [4]): 89.3 ± 3.2%; MM Cells % Alive U266 (U266 myeloma cell line; [5]): 66.8 ± 9.5%; MM Cells % Alive U266 (U266 myeloma cell line; [6]): 13% and 12.9 ± 3.5%; IC50 (U266 myeloma cell line; Homo sapiens, U-266, 24 h, incubation for 24 h): 24.7 mg/L (≈ 37.3 µM); PBMC % Alive [2, 4]: 86.5 ± 2.7%; PBMC % Alive [2, 5]: 76.2 ± 1.8%; PBMC % Alive [2, 6]: 6.1 ± 1.5%; PBMC % Alive [2, 7]: 4.6 ± 0.1%; IC50 ([2]; Homo sapiens, PBMC, 24 h, incubation for 24 h): 25.9 mg/L (≈ 39.1 µM); IC50 MCF7 (MCF7 cells): 4.0 mg/L (≈ 6.03 µM); IC50 R-MCF7 [3]: 5.3 mg/L (≈ 8 µM)
COC(C)(C)C1OC23OC1CC(C)C2C1(C)CCC24CC25CCC(OC2OCC(O)C(O)C2O)C(C)(C)C5CCC4C1(C)C3O [Compound 8, 25-O-methyl-cimigenol-3-O-β-D-xylopyranoside] |  | 84.8 ± 5.0 | 31.3 ± 6.6 | 5.0 ± 1.7 | 97.8 ± 2.1 | 84.3 ± 4.5 | 27.0 ± 9.4 | 102.0 ± 3.0 | 97.5 ± 3.8 | 81.0 ± 11.9 | 104.3 ± 0.3 | 96.3 ± 1.7 | 64.3 ± 8.0 |  |  |  | IC50 NCI-H929 ([1]; incubation for 24 h): 14.2 mg/L (≈ 22.4 µM); IC50 OPM-2 (OPM-2 myeloma cell line; incubation for 24 h): 20.7 mg/L (≈ 32.6 µM); IC50 U266 (U266 myeloma cell line; incubation for 24 h): 31.1 mg/L (≈ 49 µM); IC50 PBMC ([2]; incubation for 24 h): 26.0 mg/L (≈ 41 µM)
CC1CC2OC3(OC2C(C)(C)O)C1C1(C)CCC24CC25CCC(OC2OCC(O)C(O)C2O)C(C)(C)C5CCC4C1(C)C3O [Compound 5, cimigenol-3-O-α-L-arabinopyranoside] |  | 98.8 ± 0.9 | 97.0 ± 1.2 | 96.3 ± 1.3 | 99.8 ± 2.0 | 103.3 ± 1.4 | 103.5 ± 1.3 | 95.0 ± 3.1 | 95.8 ± 2.8 | 93.5 ± 3.5 |  |  |  | no activity | no activity | no activity | 
C=C(C)C1OC23OC1CC(C)C2C1(C)CCC24CC25CCC(OC2OCC(O)C(O)C2O)C(C)(C)C5CCC4C1(C)C3O [Compound 9, 25-anhydrocimigenol-3-O-α-L-arabinopyranoside] |  | 96.0 ±1.0 | 92.8 ± 1.7 | 92.0 ± 1.5 | 95.8 ± 2.4 | 100.0 ± 1.9 | 104.0 ± 4.7 | 101.5 ± 5.1 | 101.8 ± 4.3 | 101.3 ± 3.3 |  |  |  | no effect | no effect | no effect | 
CC(=O)O[C@@H]1C[C@@]23C[C@@]24CC[C@H](O[C@@H]2OC[C@@H](O)[C@H](O)[C@H]2O)C(C)(C)[C@@H]4CC[C@H]3[C@]2(C)C[C@@H]3O[C@@]4(C[C@@H](C)[C@@H]3[C@@]12C)OC[C@@]1(C)O[C@@H]41 [23-epi-26-deoxyactein] | 21 |  |  |  |  |  |  |  |  |  |  |  |  |  |  |  | 
